Laboratory results from paper PMC8745345, “Hydroxy Pentacyclic Triterpene Acid, Kaempferol, Inhibits the Human 5-Hydroxytryptamine Type 3A Receptor Activity” (International Journal of Molecular Sciences, 2022).

Biological target: T1, human 5-HT3A receptor I144A mutant (Homo sapiens, UniProt P46098)
T1 sequence (P46098 24-478): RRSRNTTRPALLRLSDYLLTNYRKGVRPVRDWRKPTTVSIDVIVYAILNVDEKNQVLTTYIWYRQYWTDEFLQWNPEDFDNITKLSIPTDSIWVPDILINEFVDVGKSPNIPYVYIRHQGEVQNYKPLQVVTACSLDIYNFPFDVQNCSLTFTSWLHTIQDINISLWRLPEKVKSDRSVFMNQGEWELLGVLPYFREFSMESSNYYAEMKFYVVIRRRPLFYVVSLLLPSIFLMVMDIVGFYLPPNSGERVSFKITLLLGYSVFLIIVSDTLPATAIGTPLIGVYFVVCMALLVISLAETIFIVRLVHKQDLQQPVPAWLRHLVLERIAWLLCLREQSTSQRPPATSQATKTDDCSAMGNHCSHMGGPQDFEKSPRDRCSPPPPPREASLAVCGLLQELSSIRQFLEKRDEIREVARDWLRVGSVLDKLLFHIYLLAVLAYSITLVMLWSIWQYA
Experiment: Two-electrode voltage clamp, I5-HT inhibition, I144A mutant
Assay type: cell-based
Conditions: −80 mV
Procedure: Human 5-HT3A receptor cDNA was linearized using restriction enzyme XhoI. In vitro transcription was performed using an mMESSAGE mMACHINE T7 Transcription Kit (Thermo Fisher Scientific, Waltham, MA, USA). The final mRNA product was dissolved in 1X Diethyl Pyrocarbonate (RNase-free water) at a final concentration of 1 μg/μL and kept in a deep-freezer at −80 °C until used.
Xenopus oocytes were used in this study as cells for expression of human 5-HT3A receptor. All female frogs used in this experiment were obtained from the Korean Xenopus Resource Center for Research (KXRCR000001). Xenopus management followed the guideline of Chonnam National University institution guidelines (CNU IACUC-YB-2016-07, July 2016). Xenopus oocytes were extracted during ice incubation state and isolated as single oocytes using collagenase II (2 mg/mL) in OR2 buffer (82.5 mM NaCl, 2 mM KCl, 1 mM MgCl2, 5 mM HEPES, pH 7.4). […]
The voltage relationship experiment for confirming the relationship between induce-inward current and voltage, the voltage was varied from −80 mV to +60 mV using a ramp protocol. […] All recording data were analyzed using Clampfit 9.0 (Molecular Devices, San Jose, CA, USA). […]
All presented experiments were performed at least three times for scientific verification. […] Induced-inward current data were analyzed with SigmaPlot 10.0 software (Systat Software, Inc., San Jose, CA, USA). […]

Structure (SMILES): O=c1c(O)c(-c2ccc(O)cc2)oc2cc(O)cc(O)c12 [KAE, kaempferol]
- IC50: 34.9 ± 11.2 µM
- n (Hill coefficient): 1.5 ± 0.4
